# Test results taken from patent US10772893B2, “2-(morpholin-4-yl)-1,7-naphthyridines” (BAYER PHARMA AKTIENGESELLSCHAFT, priority 2014, dated 2020).
# Tested on: HeLa cells
# Test: Proliferation assay, crystal violet staining
# Conditions: Homo sapiens, 96 h, read-out: Inhibition of HeLa cell proliferation, HeLa cells, 4 days incubation
row,SMILES,IC50 [nM]
1,"c1coc(Cc2cc(N3CCOCC3)nc3c(-c4ccn[nH]4)nccc23)c1 [Example 310, 4-(furan-2-ylmethyl)-2-(morpholin-4-yl)-8-(1H-pyrazol-5-yl)-1,7-naphthyridine]",> 3000
2,"c1ccc(COc2cc(N3CCOCC3)nc3c(-c4cc[nH]n4)nccc23)cc1 [Example 50, 4-benzyloxy-2-(morpholin-4-yl)-8-(1H-pyrazol-3-yl)-[1,7]naphthyridine]",> 10000
3,"CS(=O)(=NC#N)c1ccc(-c2cc(N3CCOCC3)nc3c(-c4ccn[nH]4)nccc23)cc1 (centres unmarked) [Example 191, (methyl{4-[2-(morpholin-4-yl)-8-(1H-pyrazol-5-yl)-1,7-naphthyridin-4-yl]phenyl}oxido-λ^6-sulfanylidene)cyanamide]",2120
4,"C[C@@H]1COCCN1c1cc(-c2cncn2Cc2ccccc2)c2ccnc(-c3ccn[nH]3)c2n1 [Example 76, 4-(1-benzyl-1H-imidazol-5-yl)-2-[(3R)-3-methylmorpholin-4-yl]-8-(1H-pyrazol-5-yl)-1,7-naphthyridine]",968
5,"C[C@@H]1CN(c2cc(N3CCOCC3)nc3c(-c4ccn[nH]4)nccc23)C[C@H](C)N1 [Example 179, 4-[(cis)-3,5-dimethylpiperazin-1-yl]-2-(morpholin-4-yl)-8-(1H-pyrazol-5-yl)-1,7-naphthyridine]",> 3000
6,"Nc1ccccc1-c1cc(N2CCOCC2)nc2c(-c3ccn[nH]3)nccc12 [Example 343, 2-[2-(morpholin-4-yl)-8-(1H-pyrazol-5-yl)-1,7-naphthyridin-4-yl]aniline]",1710
7,"CSCc1cc(N2CCOC[C@H]2C)nc2c(-c3ccn[nH]3)nccc12 [Example 186, 2-[(3R)-3-methylmorpholin-4-yl]-4-[(methylsulfanyl)methyl]-8-(1H-pyrazol-5-yl)-1,7-naphthyridine]",789
8,"C[C@@H]1COCCN1c1cc(-c2cc(C(F)(F)F)nn2C)c2ccnc(-c3ccn[nH]3)c2n1 [Example 98, 2-[(3R)-3-methylmorpholin-4-yl]-4-[1-methyl-3-(trifluoromethyl)-1H-pyrazol-5-yl]-8-(1H-pyrazol-5-yl)-1,7-naphthyridine]",440
9,"C[C@@H]1COCCN1c1cc(N=S(C)(=O)c2ccccc2F)c2ccnc(-c3ccn[nH]3)c2n1 (stereo partly drawn) [Example 139, 4-{[(2-fluorophenyl)(methyl)oxido-λ^6-sulfanylidene]amino}-2-[(3R)-3-methylmorpholin-4-yl]-8-(1H-pyrazol-5-yl)-1,7-naphthyridine]",1370
10,"C[C@@H]1COCCN1c1cc(N2CCN(S(C)(=O)=O)CC2)c2ccnc(-c3ccn[nH]3)c2n1 [Example 82, 2-[(3R)-3-methylmorpholin-4-yl]-4-[4-(methylsulfonyl)piperazin-1-yl]-8-(1H-pyrazol-5-yl)-1,7-naphthyridine]",529
11,"CCCCC(C)(O)c1cc(N2CCOC[C@H]2C)nc2c(-c3ccn[nH]3)nccc12 (stereo partly drawn) [Example 284, 2-{2-[(3R)-3-methylmorpholin-4-yl]-8-(1H-pyrazol-5-yl)-1,7-naphthyridin-4-yl}hexan-2-ol]",852
12,"FC(F)(F)c1cccc(-c2cc(N3CCOCC3)nc3c(-c4ccn[nH]4)nccc23)c1 [Example 303, 2-(morpholin-4-yl)-8-(1H-pyrazol-5-yl)-4-[3-(trifluoromethyl)phenyl]-1,7-naphthyridine]",> 3000
13,"C[C@@H]1COCCN1c1cc(-c2cc(Cl)cnc2F)c2ccnc(-c3ccn[nH]3)c2n1 [Example 229, 4-(5-chloro-2-fluoropyridin-3-yl)-2-[(3R)-3-methylmorpholin-4-yl]-8-(1H-pyrazol-5-yl)-1,7-naphthyridine]",447
14,"C[C@@H]1COCCN1c1cc(N=S(C)(=O)c2ccc(Br)cc2)c2ccnc(-c3ccn[nH]3)c2n1 (stereo partly drawn) [Example 277, 4-{[(4-bromophenyl)(methyl)oxido-λ^6-sulfanylidene]amino}-2-[(3R)-3-methylmorpholin-4-yl]-8-(1H-pyrazol-5-yl)-1,7-naphthyridine]",401
15,"COc1ccc(F)cc1-c1cc(N2CCOCC2)nc2c(-c3ccn[nH]3)nccc12 [Example 339, 4-(5-fluoro-2-methoxyphenyl)-2-(morpholin-4-yl)-8-(1H-pyrazol-5-yl)-1,7-naphthyridine]",> 3000
16,"COc1nccc(-c2cc(N3CCOC[C@H]3C)nc3c(-c4ccn[nH]4)nccc23)c1Cl [Example 106, 4-(3-chloro-2-methoxypyridin-4-yl)-2-[(3R)-3-methylmorpholin-4-yl]-8-(1H-pyrazol-5-yl)-1,7-naphthyridine]",434
17,"Fc1cccc(-c2cc(N3CCOCC3)nc3c(-c4ccn[nH]4)nccc23)c1F [Example 341, 4-(2,3-difluorophenyl)-2-(morpholin-4-yl)-8-(1H-pyrazol-5-yl)-1,7-naphthyridine]",1590
18,"C[C@@H]1COCCN1c1cc(-c2ccnc3[nH]ccc23)c2ccnc(-c3ccn[nH]3)c2n1 [Example 104, 2-[(3R)-3-methylmorpholin-4-yl]-8-(1H-pyrazol-5-yl)-4-(1H-pyrrolo[2,3-b]pyridin-4-yl)-1,7-naphthyridine]",499

# Now those with a lower IC50, led by results:
row,IC50 [nM],SMILES
1,354,"COC(=O)c1ccc(-c2cc(N3CCOC[C@H]3C)nc3c(-c4ccn[nH]4)nccc23)[nH]1 [Example 120, methyl 5-{2-[(3R)-3-methylmorpholin-4-yl]-8-(1H-pyrazol-5-yl)-1,7-naphthyridin-4-yl}-1H-pyrrole-2-carboxylate]"
2,268,"C[C@@H]1COCCN1c1cc(-c2ccc(F)nc2)c2ccnc(-c3ccn[nH]3)c2n1 [Example 94, 4-(6-fluoropyridin-3-yl)-2-[(3R)-3-methylmorpholin-4-yl]-8-(1H-pyrazol-5-yl)-1,7-naphthyridine]"
3,206,"C[C@@H]1COCCN1c1cc(-c2ccnn2C(C)(C)C)c2ccnc(-c3ccn[nH]3)c2n1 [Example 110, 4-(1-tert-butyl-1H-pyrazol-5-yl)-2-[(3R)-3-methylmorpholin-4-yl]-8-(1H-pyrazol-5-yl)-1,7-naphthyridine]"
4,201,"C[C@@H]1COCCN1c1cc(-c2cncn2C)c2ccnc(-c3ccn[nH]3)c2n1 [Example 70, 4-(1-methyl-1H-imidazol-5-yl)-2-[(3R)-3-methylmorpholin-4-yl]-8-(1H-pyrazol-5-yl)-1,7-naphthyridine]"
5,199,"CSc1ccc(-c2cc(N3CCOC[C@H]3C)nc3c(-c4ccn[nH]4)nccc23)c(C)n1 [Example 115, 4-[2-methyl-6-(methylsulfanyl)pyridin-3-yl]-2-[(3R)-3-methylmorpholin-4-yl]-8-(1H-pyrazol-5-yl)-1,7-naphthyridine]"
6,171,"C[C@@H]1COCCN1c1cc(C2CCSCC2)c2ccnc(-c3ccn[nH]3)c2n1 [Example 241, 2-[(3R)-3-methylmorpholin-4-yl]-8-(1H-pyrazol-5-yl)-4-(tetrahydro-2H-thiopyran-4-yl)-1,7-naphthyridine]"
7,142,"C[C@@H]1COCCN1c1cc(-c2cccnc2F)c2ccnc(-c3ccn[nH]3)c2n1 [Example 89, 4-(2-fluoropyridin-3-yl)-2-[(3R)-3-methylmorpholin-4-yl]-8-(1H-pyrazol-5-yl)-1,7-naphthyridine]"
8,130,"C[C@@H]1COCCN1c1cc(N2CCC(CO)CC2)c2ccnc(-c3ccn[nH]3)c2n1 [Example 84, (1-{2-[(3R)-3-methylmorpholin-4-yl]-8-(1H-pyrazol-5-yl)-1,7-naphthyridin-4-yl}piperidin-4-yl)methanol]"
